Test results from ChEMBL document CHEMBL3885861, “Open TG-GATES”.

Organism: Rattus norvegicus
Assay: Open TG-GATES - Regimen: Daily Repeat
Type: toxicity, organism-based, Sprague-Dawley
Parameters: regimen Daily Repeat, gender Male, age 6 weeks
Details: in vivo, po, 100 mg/kg, route gavage, dose level Low; for APTT / Bas / Eos / Fbg / Hb / Ht / Lym / MCH / MCHC / MCV / Mono / Neu / PT / Plat / RBC / Ret / WBC: tissue Blood; for KIDNEY_L / KIDNEY_R / KIDNEY_TOTAL: tissue Kidney; for LIVER: tissue Liver; for A/G / ALP / ALT / AST / BUN / CRE / Ca / Cl / DBIL / GLC / IP / K / LDH / Na / PL / RALB / TBIL / TC / TG / TP / gamma-GTP: tissue Plasma

With `CNC(=C[N+](=O)[O-])NCCSCc1ccc(CN(C)C)o1` [RANITIDINE] the TERMINAL_BW (72 h, time 3 day) was 232 g, the APTT (72 h, time 3 day) was 19.5 s and the Bas (72 h, time 3 day) was 0%. The Eos (72 h, time 3 day) was 1.4%, the Fbg (72 h, time 3 day) was 221.4 mg/dL and the Hb (72 h, time 3 day) was 14 g/dL. It also gave a Ht (72 h, time 3 day) of 40.9%, a Lym (72 h, time 3 day) of 78.6% and an MCH (72 h, time 3 day) of 21.7 pg. The MCHC (72 h, time 3 day) was 34.2%, the MCV (72 h, time 3 day) was 63.3 fL and the Mono (72 h, time 3 day) was 2.6%. For the same compound, the Neu (72 h, time 3 day) was 15.8%, the PT (72 h, time 3 day) was 11.9 s and the Plat (72 h, time 3 day) was 129.9 x10_4/uL. The RBC (72 h, time 3 day) was 646.4 x10_4/ul, the Ret (72 h, time 3 day) was 5.2% and the WBC (72 h, time 3 day) was 75.1 x10_2/uL. For the same compound, the KIDNEY_L (72 h, time 3 day) was 1 g, the KIDNEY_R (72 h, time 3 day) was 1 g and the KIDNEY_TOTAL (72 h, time 3 day) was 2 g. It also gave an LIVER (72 h, time 3 day) of 11.2 g, an A/G (72 h, time 3 day) of 1.6 and an ALP (72 h, time 3 day) of 970 IU/L. The ALT (72 h, time 3 day) was 34.6 IU/L, the AST (72 h, time 3 day) was 63.6 IU/L and the BUN (72 h, time 3 day) was 15.6 mg/dL. It also gave a CRE (72 h, time 3 day) of 0.4 mg/dL, a Ca (72 h, time 3 day) of 10.8 mg/dL and a Cl (72 h, time 3 day) of 103.8 meq/L. For the same compound, the DBIL (72 h, time 3 day) was 0.086 mg/dL, the GLC (72 h, time 3 day) was 192.8 mg/dL and the IP (72 h, time 3 day) was 7.4 mg/dL. For the same compound, the K (72 h, time 3 day) was 4.1 meq/L, the LDH (72 h, time 3 day) was 185.2 IU/L and the Na (72 h, time 3 day) was 141.4 meq/L. For the same compound, the PL (72 h, time 3 day) was 152.6 mg/dL, the RALB (72 h, time 3 day) was 3.5 g/dL and the TBIL (72 h, time 3 day) was 0.1 mg/dL. For the same compound, the TC (72 h, time 3 day) was 82.2 mg/dL, the TG (72 h, time 3 day) was 80 mg/dL and the TP (72 h, time 3 day) was 5.7 g/dL. It also gave a gamma-GTP (72 h, time 3 day) of 1 IU/L, a TERMINAL_BW ([…], time 7 day) of 264.8 g and a TERMINAL_BW ([…], time 14 day) of 314.1 g. The TERMINAL_BW ([…], time 28 day) was 381.6 g, the APTT ([…], time 7 day) was 19.8 s and the Bas ([…], time 7 day) was 0%. The Eos ([…], time 7 day) was 1%, the Fbg ([…], time 7 day) was 233.2 mg/dL and the Hb ([…], time 7 day) was 14 g/dL. It also gave a Ht ([…], time 7 day) of 39.9%, a Lym ([…], time 7 day) of 81.8% and an MCH ([…], time 7 day) of 21.8 pg. It also gave an MCHC ([…], time 7 day) of 35.2%, an MCV ([…], time 7 day) of 62.1 fL and a Mono ([…], time 7 day) of 2.6%. It also gave a Neu ([…], time 7 day) of 13.6%, a PT ([…], time 7 day) of 12.3 s and a Plat ([…], time 7 day) of 127.2 x10_4/uL. The RBC ([…], time 7 day) was 643.2 x10_4/ul, the Ret ([…], time 7 day) was 5.2% and the WBC ([…], time 7 day) was 99.9 x10_2/uL. It also gave an APTT ([…], time 14 day) of 19.6 s, a Bas ([…], time 14 day) of 0% and an Eos ([…], time 14 day) of 0.8%. It also gave a Fbg ([…], time 14 day) of 243.8 mg/dL, a Hb ([…], time 14 day) of 14.7 g/dL and a Ht ([…], time 14 day) of 40.9%. For the same compound, the Lym ([…], time 14 day) was 78.6%, the MCH ([…], time 14 day) was 21.7 pg and the MCHC ([…], time 14 day) was 36%. For the same compound, the MCV ([…], time 14 day) was 60.4 fL, the Mono ([…], time 14 day) was 2% and the Neu ([…], time 14 day) was 16.4%. The PT ([…], time 14 day) was 11.9 s, the Plat ([…], time 14 day) was 101 x10_4/uL and the RBC ([…], time 14 day) was 678 x10_4/ul. For the same compound, the Ret ([…], time 14 day) was 4%, the WBC ([…], time 14 day) was 109.6 x10_2/uL and the APTT ([…], time 28 day) was 20.9 s. The Bas ([…], time 28 day) was 0.2%, the Eos ([…], time 28 day) was 1% and the Fbg ([…], time 28 day) was 228.8 mg/dL. It also gave a Hb ([…], time 28 day) of 15.7 g/dL, a Ht ([…], time 28 day) of 45.1% and a Lym ([…], time 28 day) of 82.6%. It also gave an MCH ([…], time 28 day) of 19.8 pg, an MCHC ([…], time 28 day) of 34.9% and an MCV ([…], time 28 day) of 56.5 fL. It also gave a Mono ([…], time 28 day) of 1.8%, a Neu ([…], time 28 day) of 12.8% and a PT ([…], time 28 day) of 12.2 s. It also gave a Plat ([…], time 28 day) of 103.7 x10_4/uL, an RBC ([…], time 28 day) of 797.4 x10_4/ul and a Ret ([…], time 28 day) of 1.8%. The WBC ([…], time 28 day) was 119.7 x10_2/uL, the KIDNEY_L ([…], time 7 day) was 1.1 g and the KIDNEY_R ([…], time 7 day) was 1.1 g. For the same compound, the KIDNEY_TOTAL ([…], time 7 day) was 2.2 g, the KIDNEY_L ([…], time 14 day) was 1.2 g and the KIDNEY_R ([…], time 14 day) was 1.2 g. For the same compound, the KIDNEY_TOTAL ([…], time 14 day) was 2.4 g, the KIDNEY_L ([…], time 28 day) was 1.4 g and the KIDNEY_R ([…], time 28 day) was 1.3 g. The KIDNEY_TOTAL ([…], time 28 day) was 2.7 g, the LIVER ([…], time 7 day) was 12.5 g and the LIVER ([…], time 14 day) was 14.7 g. It also gave an LIVER ([…], time 28 day) of 15.5 g, an A/G ([…], time 7 day) of 1.5 and an ALP ([…], time 7 day) of 852.4 IU/L. The ALT ([…], time 7 day) was 32.4 IU/L, the AST ([…], time 7 day) was 61.2 IU/L and the BUN ([…], time 7 day) was 17.8 mg/dL. It also gave a CRE ([…], time 7 day) of 0.4 mg/dL, a Ca ([…], time 7 day) of 10.8 mg/dL and a Cl ([…], time 7 day) of 103 meq/L. The DBIL ([…], time 7 day) was 0.1 mg/dL, the GLC ([…], time 7 day) was 223.6 mg/dL and the IP ([…], time 7 day) was 7.9 mg/dL. It also gave a K ([…], time 7 day) of 3.9 meq/L, an LDH ([…], time 7 day) of 174.4 IU/L and a Na ([…], time 7 day) of 139.6 meq/L. It also gave a PL ([…], time 7 day) of 149.2 mg/dL, an RALB ([…], time 7 day) of 3.4 g/dL and a TBIL ([…], time 7 day) of 0.2 mg/dL. The TC ([…], time 7 day) was 73.2 mg/dL, the TG ([…], time 7 day) was 125.4 mg/dL and the TP ([…], time 7 day) was 5.6 g/dL. For the same compound, the gamma-GTP ([…], time 7 day) was 1.2 IU/L, the A/G ([…], time 14 day) was 1.4 and the ALP ([…], time 14 day) was 793 IU/L. For the same compound, the ALT ([…], time 14 day) was 35.6 IU/L, the AST ([…], time 14 day) was 63.2 IU/L and the BUN ([…], time 14 day) was 16.4 mg/dL. For the same compound, the CRE ([…], time 14 day) was 0.5 mg/dL, the Ca ([…], time 14 day) was 10.7 mg/dL and the Cl ([…], time 14 day) was 103.6 meq/L. It also gave a DBIL ([…], time 14 day) of 0.1 mg/dL, a GLC ([…], time 14 day) of 190.4 mg/dL and an IP ([…], time 14 day) of 6.9 mg/dL. It also gave a K ([…], time 14 day) of 3.9 meq/L, an LDH ([…], time 14 day) of 180 IU/L and a Na ([…], time 14 day) of 142 meq/L. It also gave a PL ([…], time 14 day) of 159.4 mg/dL, an RALB ([…], time 14 day) of 3.5 g/dL and a TBIL ([…], time 14 day) of 0.2 mg/dL. The TC ([…], time 14 day) was 75.6 mg/dL, the TG ([…], time 14 day) was 152 mg/dL and the TP ([…], time 14 day) was 6 g/dL. The gamma-GTP ([…], time 14 day) was 1.2 IU/L, the A/G ([…], time 28 day) was 1.3 and the ALP ([…], time 28 day) was 621.4 IU/L. The ALT ([…], time 28 day) was 32.8 IU/L, the AST ([…], time 28 day) was 63.4 IU/L and the BUN ([…], time 28 day) was 17.2 mg/dL. It also gave a CRE ([…], time 28 day) of 0.5 mg/dL, a Ca ([…], time 28 day) of 10.3 mg/dL and a Cl ([…], time 28 day) of 103.2 meq/L. The DBIL ([…], time 28 day) was 0.094 mg/dL, the GLC ([…], time 28 day) was 220.2 mg/dL and the IP ([…], time 28 day) was 6.6 mg/dL. For the same compound, the K ([…], time 28 day) was 3.6 meq/L, the LDH ([…], time 28 day) was 164.4 IU/L and the Na ([…], time 28 day) was 141.4 meq/L. The PL ([…], time 28 day) was 138.4 mg/dL, the RALB ([…], time 28 day) was 3.5 g/dL and the TBIL ([…], time 28 day) was 0.2 mg/dL. The TC ([…], time 28 day) was 65.2 mg/dL, the TG ([…], time 28 day) was 107.2 mg/dL and the TP ([…], time 28 day) was 6.3 g/dL. It also gave a gamma-GTP ([…], time 28 day) of 1.2 IU/L.
